One block for each molecule: values may come before it.
Test: solvent given as SMILES

Structure (SMILES): COCCC1=Cc2nc1ccc1[nH]c(cc1CCOC)c1nc(c(O)cc3[nH]c2cc3CCOC)C(CCOC)=C1
absorption maximum (in Cc1ccccc1): 680 nm

Structure (SMILES): CC(C)(C)c1ccc2c3c(c4ccc(C(C)(C)C)cc4c2c1)=[N+]1C(=C(c2ccccc2)c2cc4c5ccc(C(C)(C)C)cc5c5cc(C(C)(C)C)ccc5c4n2[B-]1(F)F)C=3
absorption maximum (in C1CCCCC1): 693 nm | absorption maximum (in C1CCOC1): 689 nm | absorption maximum (in CC#N): 683 nm | absorption maximum (in Cc1ccccc1): 694 nm | absorption maximum (in ClCCl): 691 nm

Structure (SMILES): FC(F)(F)c1ccc(C#Cc2ncc(-c3ccccc3)o2)cc1
absorption maximum (in ClCCl): 320 nm

Structure (SMILES): CC1=CC(Br)=CN2C[n+]3cc(Br)cc(C)c3N=C12
absorption maximum (in CO): 436 nm

Structure (SMILES): CCCCCCCCN1C(=O)c2ccc3c4c(-c5ccc6c(c5)c5ccccc5n6-c5ccccc5)cc5c6c(cc(-c7ccc8c(c7)c7ccccc7n8-c7ccccc7)c(c7ccc(c2c37)C1=O)c64)C(=O)N(CCCCCCCC)C5=O
absorption maximum (in ClC(Cl)Cl): 563 nm

Structure (SMILES): CCC1(CC)c2ccccc2-c2c1c1c(c3c2C(CC)(CC)c2cc(N(c4ccccc4)c4ccccc4)ccc2-3)C(CC)(CC)c2ccccc2-1
absorption maximum (in C1CCOC1): 356 nm | absorption maximum (in CC#N): 353 nm | absorption maximum (in CC(C)=O): 354 nm | absorption maximum (in CCCCCC): 356 nm | absorption maximum (in Cc1ccccc1): 360 nm

Structure (SMILES): CC1(C)C(/C=C/C2=C(Oc3ccc(CCN=C=S)cc3F)C(=C/C=C3/N(CCCS(=O)(=O)[O-])c4ccccc4C3(C)C)/CCC2)=[N+](CCCS(=O)(=O)[O-])c2ccccc21
absorption maximum (in CO): 768 nm

Structure (SMILES): O=S(=O)(c1ccccc1)c1ccc(-c2ccc3c(c2)c2cc(-c4ccc(S(=O)(=O)c5ccccc5)cc4)ccc2n3-c2ccccc2)cc1
absorption maximum (in CCCCCC): 343 nm | absorption maximum (in CN(C)C=O): 345 nm | absorption maximum (in CO): 343 nm | absorption maximum (in Cc1ccccc1): 340 nm | absorption maximum (in ClCCl): 343 nm

Structure (SMILES): CCC1=C(C)C(=O)n2c1cc1c(C)c(CC(=O)OC)c(C)n1c2=O
absorption maximum (in CC#N): 413 nm | absorption maximum (in CC(C)=O): 413 nm | absorption maximum (in CO): 420 nm | absorption maximum (in CS(C)=O): 421 nm | absorption maximum (in ClC(Cl)Cl): 423 nm | absorption maximum (in c1ccccc1): 416 nm

Structure (SMILES): CCOC(=O)/C=C/C1=C(c2ccc(C)cc2)C2=Nc3c(-c4ccc(C)cc4)c(-c4ccc(OC)cc4)c(-c4ccc(C)cc4)n3[B-](F)(F)[N+]2=C1c1ccc(C)cc1
absorption maximum (in ClC(Cl)Cl): 673 nm

Structure (SMILES): CCN(CC)c1ccc2c(-c3ccccc3C(=O)O)c3c([o+]c2c1)/C(=C/c1ccc(N2CCCC2)s1)CCC3
absorption maximum (in ClCCl): 738 nm

Structure (SMILES): c1ccc2c(c1)CCc1ccccc1N2c1c2ccccc2c(N2c3ccccc3CCc3ccccc32)c2ccccc12
absorption maximum (in Cc1ccccc1): 456 nm

Structure (SMILES): CCC(CC)COC1=CC2=C3c4cc(OCC(CC)CC)c(-c5ccccc5)n4[B-](F)(F)[n+]4nnn(c43)[B-](F)(F)[N+]2=C1c1ccccc1
absorption maximum (in C1CCOC1): 691 nm | absorption maximum (in CC#N): 687 nm | absorption maximum (in ClCCl): 700 nm

Structure (SMILES): CC1=c2cc3c(C)c4n(c3cc2=[N+]2C1=Cc1c3ccccc3c(C)n1[B-]2(F)F)[B-](F)(F)[N+]1=C(C)c2ccccc2C1=C4
absorption maximum (in ClC(Cl)Cl): 775 nm

Structure (SMILES): N#Cc1cc(C#N)c(-c2ccc(N(c3ccccc3)c3ccccc3)cc2)cc1-c1ccc(N(c2ccccc2)c2ccccc2)cc1
absorption maximum (in Cc1ccccc1): 394 nm

Structure (SMILES): COC(=O)CCC(NC(=O)CCNc1cccc2ccccc12)C(=O)OC (stereo not given)
absorption maximum (in CCO): 330 nm

Structure (SMILES): CC[C@H](C)COc1ccc(C2=C3C(C)=CC(C)=[N+]3[B-](F)(F)n3c(C)cc(C)c32)cc1
absorption maximum (in ClCCl): 501 nm

Structure (SMILES): F[B-]1(F)n2c(ccc2-c2cccs2)C(C(F)(F)F)=C2C=CC(c3cccs3)=[N+]21
absorption maximum (in CCCCCC): 665 nm

Structure (SMILES): CC1(C)c2ccccc2N(c2ccc3c(c2)Oc2ccccc2S3(=O)=O)c2ccccc21
absorption maximum (in Cc1ccccc1): 356 nm

Structure (SMILES): Cc1cc(C)n2c1C=[N+]1[N+](=C3C=NC=CN3[B-]1(F)F)[B-]2(F)F
absorption maximum (in ClCCl): 467 nm

Structure (SMILES): COc1ccc(/C=C/c2ncc(-c3ccccc3)o2)cc1OC
absorption maximum (in ClCCl): 355 nm

Structure (SMILES): CCCCNC(=O)c1nc2c(N(C)C)nc(N(C)C)nc2n1Cc1ccccc1
absorption maximum (in C1COCCO1): 332 nm | absorption maximum (in CC#N): 333 nm | absorption maximum (in CO): 335 nm | absorption maximum (in ClCCl): 338 nm

Structure (SMILES): c1ccc(-c2nc(-c3ccccc3)nc(-c3ccc(-n4c5ccccc5c5cc6c(cc54)C4c5ccccc5C6c5ccccc54)cc3)n2)cc1
absorption maximum (in Cc1ccccc1): 373 nm

Structure (SMILES): O=C1c2ccccc2S(=O)(=O)c2ccc(-n3c4ccccc4c4ccccc43)cc21
absorption maximum (in C1CCOC1): 404 nm | absorption maximum (in CCCCCC): 404 nm | absorption maximum (in Cc1ccccc1): 404 nm | absorption maximum (in ClC(Cl)Cl): 404 nm | absorption maximum (in ClCCl): 404 nm

Structure (SMILES): C[C@]12SC(=O)C=C1c1nc(-c3ccc(O)cc3)[nH]c1C1=CC(=O)S[C@@]12C
absorption maximum (in CC#N): 470 nm

Structure (SMILES): COc1ccc(N(c2ccc(OC)cc2)c2cc3ccc4cc(B(c5c(C)cc(C)cc5C)c5c(C)cc(C)cc5C)cc5ccc(c2)c3c45)cc1
absorption maximum (in C1CCOC1): 399 nm | absorption maximum (in CC(C)=O): 395 nm | absorption maximum (in CCCCCC): 398 nm | absorption maximum (in Cc1ccccc1): 402 nm | absorption maximum (in ClC(Cl)Cl): 399 nm | absorption maximum (in ClCCl): 397 nm

Structure (SMILES): COc1ccc(C2=C3C(/C=C/c4cc(OC)c(OC)c(OC)c4)=C(C=O)C(/C=C/c4cc(OC)c(OC)c(OC)c4)=[N+]3[B-](F)(F)n3c(/C=C/c4cc(OC)c(OC)c(OC)c4)c(C=O)c(C=Cc4cc(OC)c(OC)c(OC)c4)c32)cc1
absorption maximum (in ClCCl): 688 nm

Structure (SMILES): COc1ccc(/C=C/C2=CC(/C=C/c3ccc(OC)cc3)=[N+]3C2=C(c2ccc(-c4ccc5ccccc5n4)s2)c2c(/C=C/c4ccc(OC)cc4)cc(/C=C/c4ccc(OC)cc4)n2[B-]3(F)F)cc1
absorption maximum (in C1COCCO1): 708 nm

Structure (SMILES): CCCCC1(CCCC)c2cc(C#Cc3ccc4ccc5cccc6ccc3c4c56)ccc2-c2ccc(C#Cc3ccc4ccc5cccc6ccc3c4c56)cc21
absorption maximum (in C1CCCCC1): 418 nm | absorption maximum (in C1CCOC1): 421 nm | absorption maximum (in CC#N): 420 nm | absorption maximum (in CCOC(C)=O): 419 nm | absorption maximum (in CN(C)C=O): 427 nm | absorption maximum (in Cc1ccccc1): 424 nm | absorption maximum (in ClC(Cl)Cl): 421 nm | absorption maximum (in ClCCl): 424 nm

Structure (SMILES): Cc1nc2c(ccc3c2sc(/C=C/c2ccc(N(C)C)cc2)[n+]3C)s1
absorption maximum (in CO): 534 nm | absorption maximum (in ClC(Cl)Cl): 557 nm

Structure (SMILES): CN(C)c1ccc(-c2cc(-c3ccc(C#N)cc3)nn2C)cc1
absorption maximum (in C1CCCCC1): 288 nm | absorption maximum (in CC#N): 292 nm | absorption maximum (in CCOC(C)=O): 290 nm | absorption maximum (in CCOCC): 289 nm | absorption maximum (in CN(C)C=O): 295 nm | absorption maximum (in Cc1ccccc1): 292 nm | absorption maximum (in ClCCl): 292 nm

Structure (SMILES): Nc1cc2nc3cc(Cl)c(Cl)cc3nc2cc1N
absorption maximum (in CCO): 442 nm

Structure (SMILES): CC1(C)C2=[N+](CCCCCC(=O)NCNC(=O)CCCCCN3/C(=C/C=C/C=C/C=C/2)C(C)(C)c2cc(S(=O)(=O)[O-])ccc23)c2ccc(S(=O)(=O)[O-])cc21
absorption maximum (in CO): 754 nm

Structure (SMILES): c1cc2ccc1-c1ccc(cc1)-c1ccc(s1)-c1ccc(cc1)-c1ccc(cc1)-c1ccc(s1)-c1ccc(cc1)-c1ccc(cc1)-c1ccc(s1)-c1ccc(cc1)-c1ccc(cc1)-c1ccc-2s1
absorption maximum (in C1CCOC1): 354 nm

Structure (SMILES): CC(C)(C)c1cc2ccc3c(N(c4ccc(F)cc4)c4ccc(F)cc4)cc(N(c4ccc(F)cc4)c4ccc(F)cc4)c4ccc(c1)c2c34
absorption maximum (in ClCCl): 414 nm

Structure (SMILES): F[B-]1(F)n2c(c(-c3ccccc3)c(-c3ccccc3)c2-c2ccccc2)C(c2ccccc2)=C2C(c3ccccc3)=C(c3ccccc3)C(c3ccccc3)=[N+]21
absorption maximum (in C1CCOC1): 573 nm

Further lines, results first:

absorption maximum (in ClC(Cl)Cl): 470 nm
Structure (SMILES): Cc1c2c(c(C)c3ccccc13)C1=CC3Nc4ccccc4NC3C=C12 (stereo not given)

absorption maximum (in C1CCCCC1): 293 nm
Structure (SMILES): COc1ccc(-c2ccc(-c3ccc(OC)cc3)cc2)cc1

absorption maximum (in C1CCOC1): 372 nm
Structure (SMILES): O=S1(=O)C(c2cccs2)=C(c2cccs2)c2ccccc21

absorption maximum (in ClCCl): 376 nm
Structure (SMILES): COc1ccc(-c2c3ccccc3c(-c3ccc(OC)cc3)c3ccccc23)cc1

absorption maximum (in ClC(Cl)Cl): 393 nm
Structure (SMILES): c1ccc2c(c1)ccc1ccc3ccc4ccccc4c3c12

absorption maximum (in ClC(Cl)Cl): 419 nm
Structure (SMILES): CCn1c2ccccc2c2cc3c(cc21)c1ccccc1n3CC

absorption maximum (in C1CCOC1): 573 nm | absorption maximum (in ClCCl): 561 nm
Structure (SMILES): CC1=C(C#Cc2ccccc2)C(C)=[N+]2C1=C(c1ccccc1)c1c(C)c(C#Cc3ccccc3)c(C)n1[B-]2(F)F

absorption maximum (in ClCCl): 303 nm
Structure (SMILES): Cc1cc2ccccc2c2c1c1ccccc1n2-c1ncccn1

absorption maximum (in ClC(Cl)Cl): 506 nm
Structure (SMILES): N#CC(C#N)=Cc1ccc(-c2ccc(N(c3ccccc3)c3ccccc3)cc2)s1

absorption maximum (in CO): 339 nm
Structure (SMILES): CN1C2=Nc3n(C)c4ccccc4[n+]3CN2c2ccccc21

absorption maximum (in CCO): 360 nm | absorption maximum (in O): 361 nm
Structure (SMILES): Oc1ccc(-c2cccs2)cc1-c1nc2ccccc2s1

absorption maximum (in ClCCl): 322 nm
Structure (SMILES): CCOC(=O)c1c(-c2c(Cl)c3ccccc3oc2=O)nn(-c2ccccc2)c1C(=O)OCC

absorption maximum (in CC#N): 401 nm | absorption maximum (in CO): 407 nm
Structure (SMILES): O=C1c2ccccc2-c2c(-c3ccccc3)c(-c3ccccc3)c(-c3ccccc3)c3cccc1c23

absorption maximum (in ClCCl): 557 nm
Structure (SMILES): CCCCCCOc1cc(N(CC)CC)ccc1/C=C(\C#N)c1ccc(/C=C/C(=C(C#N)C#N)c2ccc(N(c3ccccc3)c3ccccc3)cc2)s1

absorption maximum (in C1CCOC1): 392 nm
Structure (SMILES): N#Cc1c(N2CCCC2)cc(-c2ccccc2)c2c1-c1ccccc1C2=O

absorption maximum (in ClCCl): 334 nm
Structure (SMILES): COc1ccc(C(=O)NC(C)(C)C)c2c1ccc1c3ccccc3c3ccccc3c12

absorption maximum (in CO): 298 nm | absorption maximum (in ClC(Cl)Cl): 299 nm | absorption maximum (in ClCCl): 299 nm
Structure (SMILES): C(#Cc1ccccc1)c1ccccc1

absorption maximum (in ClCCl): 342 nm
Structure (SMILES): O=[N+]([O-])c1ccc(O)c(-c2nc3c(c4c2-c2ccccc2CC4)-c2ccccc2CC3)c1

absorption maximum (in ClCCl): 391 nm
Structure (SMILES): COc1cc(C(=O)c2c(C)c3ccc4cccc5c6cccc7ccc2c(c76)c3c45)cc(OC)c1OC

absorption maximum (in C1CCCCC1): 290 nm
Structure (SMILES): CCOC(=O)CCOc1ccc(C(c2c(C)[nH]c3ccccc23)c2c(C)[nH]c3ccccc23)cc1

absorption maximum (in ClC(Cl)Cl): 485 nm
Structure (SMILES): N#Cc1nc(N(Cc2ccc(Cl)cc2)Cc2ccc(Cl)cc2)c(C#N)nc1N(Cc1ccc(Cl)cc1)Cc1ccc(Cl)cc1

absorption maximum (in ClCCl): 447 nm
Structure (SMILES): Cc1cccc(C)c1N1C(c2ccccc2)=Cc2ccc3ccccc3[n+]2[B-]1(F)F

absorption maximum (in ClCCl): 403 nm
Structure (SMILES): C1=Cc2ccc(N(c3ccccc3)c3cccc4ccccc34)cc2C2(c3cc(N(c4ccccc4)c4cccc5ccccc45)ccc31)c1ccccc1-c1ccccc12

absorption maximum (in C1CCOC1): 330 nm
Structure (SMILES): c1ccc(C2=C(c3ccccc3)[Si](c3ccccc3)(c3ccccc3)c3ccccc32)cc1

From the Deep4Chem optical property database
